Source: article PMC10744333, “New Perspective for Using Antimicrobial and Cell-Penetrating Peptides to Increase Efficacy of Antineoplastic 5-FU in Cancer Cells” (Journal of Functional Biomaterials, 2023)
Where two headings read alike, the source gives them in different places. Where a SMILES comes first, the peptide text is derived from it.

Key:
[1] = test system: UM-UC-5 urothelial bladder cancer cell lines; test: tissue or blood; assay type: cell-based; settings: 48 h
Protocol: (§1) A549 adenocarcinomic human alveolar basal epithelial cells, UM-UC-5 urothelial bladder cancer cell lines, and MRC-5 human normal lung fibroblast cells (all from ATCC, American Type Culture Collection, Manassas, VA, USA) were cultured in Dulbecco’s Modified Eagle Medium (DMEM) medium (Gibco®, Grand Island, NY, USA), supplemented with 10% fetal bovine serum (FBS, Gibco®, Grand Island, NY, USA) and 1% (v/v) penicillin/streptomycin (Sigma-Aldrich®, Steinheim, Germany), maintained at 37 °C and 95% humidified air in a 5% CO2 environment. Cells were cultured in monolayers in T25 cm^2 flasks (ThermoScientific®, Waltham, MA, USA) and cell media were replaced every 2–3 days. At 80% confluency, cells were subcultured. For the subculture process, 0.25% trypsin-ethylenediaminetetraacetic acid (EDTA, Sigma-Aldrich®, Steinheim, Germany), was added.
(§2) The potential of the antineoplastic drug 5-FU, five cationic antimicrobial peptides (CAMPs), and two cell-penetrating peptides (CPPs) was analyzed in UM-UC-5 and A549 cell lines. Cells were treated with drugs in concentrations ranging from 0.1 to 100 μM (for 5-FU) and 0.1 to 50 μM (for CAMPs and CPPs) for 48 h, and cell survival was evaluated using the MTT assay. […] IC50 values > 100 μM were not considered.
(§3) The cell viability was measured using the MTT (Thiazolyl blue tetrazolium bromide; cat. no. M5655; Sigma-Aldrich; Merck KGaA, Darmstadt, Germany) assay in 96-well plates. For the protocol, 5 × 10^3 cells in 200 µL of medium were grown per well for 24 h at 37 °C. Then, cells were treated with CAMPs and CPPs in the following concentrations: 0.1, 1.0, 5.0, 10, 25, and 50 µM. […] The controls were treated with 0.1% H2O and 0.1% DMSO (vehicles). After incubation for 48 h at 37 °C, cell media were aspirated and 100 µL of MTT solution (0.5 mg/mL in PBS) was added to each well. After incubation for 3 h at 37 °C protected from light, MTT solution was removed from each well and 100 µL of DMSO was added to each well to solubilize the formazan crystals. Absorbance was measured on a Tecan Infinite M200 plate reader (Tecan Group Ltd., Männedorf, Switzerland) at 570 nm. The cell viability was calculated relative to the absorbance of carrier controls. Average values were obtained by performing three independent cell viability assays (n = 3).

[2] = test system: A549 adenocarcinomic human alveolar basal epithelial cells; assay type: cell-based; settings: 48 h
Protocol: as §1, §2, §3

[3] = UM-UC-5 cells, MTT, n = 3, read-out: IC50
[4] = A549 cells, MTT, n = 3, read-out: IC50

With O=c1[nH]cc(F)c(=O)[nH]1 [Peptide 5-FU, 5-fluorouracil, reference compound] the IC50 [1, 3] was 4.21 µM.
H-RQRRVVIWW-NH2 [CAMP7] showed an IC50 [2, 4] of over 100 µM and an IC50 [1, 3] of over 100 µM.
With H-WKWLKKWIK-NH2 [CAMP1] the IC50 [2, 4] was 12.4 µM and the IC50 [1, 3] was over 100 µM.
Ac-CLLIILRRRIRKQAHAHSK-NH2 [CPP4] showed an IC50 [2] of over 100 µM and an IC50 [1] of over 100 µM.
H-RLWWWWRRR-NH2 [CAMP3] was tested, and the IC50 [2] was 17.6 µM and the IC50 [1] was over 100 µM.
CC[C@H](C)[C@H](NC(=O)[C@@H](NC(=O)[C@@H](NC(=O)[C@H](CCCNC(=N)N)NC(=O)[C@H](CCCNC(=N)N)NC(=O)[C@H](CCC(N)=O)NC(=O)[C@H](CCCNC(=N)N)NC(=O)/C=C/c1ccccc1)C(C)C)C(C)C)C(=O)N[C@@H](Cc1c[nH]c2ccccc12)C(=O)N[C@@H](Cc1c[nH]c2ccccc12)C(N)=O [CPP2] (HELM PEPTIDE1{[O=C(/C=C/c1ccccc1)[*:2]].R.Q.R.R.V.V.I.W.W.[am]}$$$$V2.0) showed an IC50 [2, 4] of over 100 µM and an IC50 [1, 3] of 5.47 µM.
With H-WRKFWKYLK-NH2 [CAMP2] the IC50 [2, 4] was 5.77 µM and the IC50 [1, 3] was 21.6 µM.
Molecule H-RIRRWKFRW-NH2 [CAMP5] has an IC50 [2, 4] of 19.7 µM and an IC50 [1, 3] of over 100 µM.
